One assay has as its target CDK2/Cyclin E1 (Homo sapiens, UniProt P24941). Put plainly: CDK2/Cyclin E1 Biochemical Assay (TR-FRET), 1 mM ATP. The following applies: 0.15 μM Rb (Ser780)-biotin substrate, pH7.0, 60 min preincubation, 90 min reaction, room temperature. The procedure, abridged: (§1)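 TR-FRET kinase reaction with 1 mM ATP and 0.15 μM Rb (Ser780)-biotin substrate in pH 7.0 HEPES buffer; enzyme preincubated 60 min with compound (0-10 μM), then reacted 90 min at room temperature. Phospho-Rb detected by Eu-anti-pRb/streptavidin-XL665 665/620 nm ratio; IC50 from four-parameter logistic fit.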

In the next assay the target is CDK1/Cyclin B1 (Homo sapiens, UniProt P06493). Description: CDK1/Cyclin B1 Biochemical Assay (TR-FRET), 1 mM ATP. The settings on record: 0.15 μM Rb (Ser780)-biotin substrate, pH7.0, 60 min preincubation, 90 min reaction, room temperature. The procedure, abridged:
as §1
A general note: TR-FRET usually uses a lanthanide donor and a delayed reading to cut background.

CDK1/Cyclin B1, sequence (P06493 whole entry): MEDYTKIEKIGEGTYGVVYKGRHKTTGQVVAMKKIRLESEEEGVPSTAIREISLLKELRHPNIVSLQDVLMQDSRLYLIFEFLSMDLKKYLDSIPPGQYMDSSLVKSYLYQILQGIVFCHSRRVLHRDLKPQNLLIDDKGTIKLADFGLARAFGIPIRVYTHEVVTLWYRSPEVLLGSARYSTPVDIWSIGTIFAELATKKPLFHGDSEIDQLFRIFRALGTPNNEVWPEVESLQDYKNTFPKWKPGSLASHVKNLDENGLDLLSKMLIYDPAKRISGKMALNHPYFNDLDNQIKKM
CDK1/Cyclin B1, sequence (P14635 whole entry partner): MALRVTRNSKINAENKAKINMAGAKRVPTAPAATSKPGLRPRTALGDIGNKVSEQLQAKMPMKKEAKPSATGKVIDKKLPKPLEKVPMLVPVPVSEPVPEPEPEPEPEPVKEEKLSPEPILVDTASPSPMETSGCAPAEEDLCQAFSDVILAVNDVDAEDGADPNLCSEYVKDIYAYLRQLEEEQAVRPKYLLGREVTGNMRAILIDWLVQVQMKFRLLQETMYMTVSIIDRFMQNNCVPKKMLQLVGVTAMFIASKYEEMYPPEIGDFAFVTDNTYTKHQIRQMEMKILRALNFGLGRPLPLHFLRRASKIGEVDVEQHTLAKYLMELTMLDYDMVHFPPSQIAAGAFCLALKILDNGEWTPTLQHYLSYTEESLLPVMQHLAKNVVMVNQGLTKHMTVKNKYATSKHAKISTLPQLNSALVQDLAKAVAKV

By IC50 is commonly meant the point on the concentration scale where inhibition reaches its midpoint. High values mean weaker potency in that assay, low ones greater potency in that assay. As for `CC(C)(CO)NC(=O)O[C@H]1CC[C@@H](c2cc(Nc3ccc4c(c3F)CS(=O)(=O)N4C3CC3)n[nH]2)C1` (single isomer, unassigned) [Example 363b, cis-3-(3-((1-cyclopropyl-4-fluoro-2,2-dioxido-1,3-dihydrobenzo[c]isothiazol-5-yl)amino)-1H-pyrazol-5-yl)cyclopentyl(1-hydroxy-2-methylpropan-2-yl)carbamate], the IC50 at CDK2/Cyclin E1 amounted to 0.0015 µM; against CDK1/Cyclin B1, 0.863 µM.
On the same counts, the results for `O=C(NC12CC(C1)C2)O[C@H]1CC[C@@H](c2cc(Nc3cc4c(cc3F)S(=O)(=O)NC4)n[nH]2)C1` (single isomer, unassigned) [Example 422a, cis-3-(3-((6-fluoro-1,1-dioxido-2,3-dihydrobenzo[d]isothiazol-5-yl)amino)-1H-pyrazol-5-yl)cyclopentyl bicyclo[1.1.1]pentan-1-ylcarbamate] are 0.0023 µM and 3.25 µM.
On the same counts, the results for `O=C(NC12CC(C1)C2)O[C@H]1CC[C@@H](c2cc(Nc3cc4c(cc3F)S(=O)(=O)NC4)n[nH]2)C1` (single isomer, unassigned) [Example 422b, cis-3-(3-((6-fluoro-1,1-dioxido-2,3-dihydrobenzo[d]isothiazol-5-yl)amino)-1H-pyrazol-5-yl)cyclopentyl bicyclo[1.1.1]pentan-1-ylcarbamate] are 0.001 µM and 0.98 µM.
On the same counts, the results for `CC1(NC(=O)O[C@@H]2CC[C@H](c3cc(Nc4ccc5c(c4F)CS(=O)(=O)N5)n[nH]3)C2)CCC1` (single isomer, unassigned) [Example 427a] are 0.0011 µM and 0.145 µM.
In the case of `CC1(NC(=O)O[C@H]2CC[C@@H](c3cc(Nc4ccc5c(c4F)CS(=O)(=O)N5)n[nH]3)C2)CCC1` (single isomer, unassigned) [Example 427b], the results for the half-inhibitory concentration (IC50) on CDK2/Cyclin E1 and against CDK1/Cyclin B1 were 0.0008 µM and 0.068 µM, respectively.
The matching figures for `CC(C)NC(=O)O[C@@H]1CC[C@H](c2cc(Nc3ccc4c(c3F)CCS(=O)(=O)N4)n[nH]2)C1` (single isomer, unassigned) [Example 430a]: 0.0036 µM and 1.77 µM.
The matching figures for `CC(C)NC(=O)O[C@H]1CC[C@@H](c2cc(Nc3ccc4c(c3F)CCS(=O)(=O)N4)n[nH]2)C1` (single isomer, unassigned) [Example 430b]: 0.0022 µM and 0.784 µM.
Consider `CCCNC(=O)O[C@@H]1CC[C@H](c2cc(Nc3ccc4c(c3F)CS(=O)(=O)N4CC(C)(C)O)n[nH]2)C1` [Example 433a], for which the values for the IC50 at CDK2/Cyclin E1 and against CDK1/Cyclin B1 were 0.018 µM and 3.1 µM, respectively.
As for `CCCNC(=O)O[C@H]1CC[C@@H](c2cc(Nc3ccc4c(c3F)CS(=O)(=O)N4CC(C)(C)O)n[nH]2)C1` [Example 433b], the concentration for half-maximal inhibition (IC50) at CDK2/Cyclin E1 turned out to be 0.018 µM; on CDK1/Cyclin B1 it was 1.45 µM.
Consider `CC(C)(C)NC(=O)O[C@H]1CC[C@@H](c2cc(Nc3ccc4c(c3F)CCS(=O)(=O)N4)n[nH]2)C1` [Example 463, (1S,3R)-3-(3-((5-fluoro-2,2-dioxido-3,4-dihydro-1H-benzo[c][1,2]thiazin-6-yl)amino)-1H-pyrazol-5-yl)cyclopentyl tert-butylcarbamate], for which the results for the IC50 against CDK2/Cyclin E1 and on CDK1/Cyclin B1 were 0.0004 µM and 0.14 µM, respectively.
The matching figures for `CC(C)(C)NC(=O)O[C@@H]1CC[C@H](c2cc(Nc3ccc4c(c3F)CCS(=O)(=O)N4)n[nH]2)C1` [Example 464, (1R,3S)-3-(3-((5-fluoro-2,2-dioxido-3,4-dihydro-1H-benzo[c][1,2]thiazin-6-yl)amino)-1H-pyrazol-5-yl)cyclopentyl tert-butylcarbamate]: 0.0008 µM and 0.325 µM.

Values taken from patent US20260297080A1, “BICYCLIC COMPOUNDS AS CDK INHIBITORS” (BeOne Medicines I GmbH, priority 2022, published 2026).
